The text below walks through data of US20010049372A1, “Antiviral nucleoside analogues” (BioChem Pharma Inc., priority 1998, published 2001).

Like-named read-outs stand apart in the source and are kept apart here. Some results are limits rather than exact numbers.

Format in all cases: cell-based
Series [1] deals with K65R. Put plainly: Recombinant drug resistant HIV-1 variants (RT activity). The following applies: Human immunodeficiency virus 1. As for the experimental part:
(§1) ANTIVIRAL ASSAYS. The anti-HIV-1 activity of the compound A (−) were assessed by employing HIV-1IIIB in a variety of cell types as previously described (Gu et al., 1992, 1994, 1999; Rando et al., 1995; Salomon et al., 1994). Briefly, cells were incubated with virus at a multiplicity of infection (MOI) of 0.005 for T cell assays and an MOI of 0.5 for monocytic cell assays for 3 hrs. Unbound virus was then removed by washing the cells, followed by seeding the cells into a 96-well plate. The infected cells were cultured in the presence of a serial concentrations of the test compound for 5-7 days. The anti-HIV-1 efficacy was determined by testing for HIV-1 RT activity or p24 level in the cell culture supernatants. All assays were performed in duplicate. Zidovudine and/or lamivudine were used as controls in each experiment.
Recombinant HIV-1 variants were prepared by introducing the designed mutations into HXB2-D by site-directed mutagenesis as described (Gu et al. 1992, 1994). The virus stocks were prepared by transfecting MT-4 cells with infectious viral DNA constructs. Antiviral activity of the compound A (−) was evaluated as described in example 10.

The test system of series [2] is HIV-19881. In words: Anti-HIV-1 assay, non-syncytium inducing strain (p24). The conditions noted are these: Human immunodeficiency virus 1, PBMC; HIV-19881, PBMCs, determined by p24. As for the experimental part:
as §1
(§2) Furthermore, antiretroviral activity of the compound A (−) was also assessed using different types of HIV-1 strains. […]

For series [3], the system named is HIV-1WRM8488. In words: Anti-HIV-1 assay, monocytropic strain (p24). The following applies: Human immunodeficiency virus 1; HIV-1WRM8488, m/m cells, determined by p24. As for the experimental part: as §1, §2
A short description of series [4]: Cellular toxicity by WST-1 staining. The conditions noted are these: human, CBMCs. Here is the method:
(§3) The cellular toxicity of the compounds were assessed on various cells using [^3H]-thymidine uptake. Various cells, including Molt-4, HT1080, DU-145, HepG-2 and HSF, were plated at a concentration of 1-2×10^3 cells per well (96 well plates). After a 24 hr incubation period, 10-fold serial diluted compounds (b 10^−4 M to 10^−10 M) were added to the culture medium and the cells were further incubated for 72 hrs. [^3H]-thymidine was added during the final 18 hr incubation period. After incubation with the [^3H]-thymidine, the cells were washed once with PBS, treated with trypsin if the cells were adherent, and then resuspended in water (hypotonic lysing of cells). The cellular extract was applied directly to a Tomtec Harvester 96. Using this instrument the extracted DNA is adsorbed onto filters, washed and the incorporated [^3H]-thymidine is then counted. The 50% cytotoxic concentration (CC50) was determined by comparing the radioactive counts per minute of the samples in the presence of the compounds against the control. The cellular toxicity of the compounds was also tested by WST-1 staining through assessing proliferation of MT-2, H9, Jurkat, U937, and CBMCs. The established cell lines were cultured in RPMI medium in 96-well plates at a density of 5×10^4 cells/well while CBMCs were plated at a concentration of 0.5×10^6/well. A 10-fold serial diluted (10^−4-10^−7 M) compound was added at day zero. At day 4, the cells were passaged by changing half medium containing appropriately diluted compound. The cell activities were assessed at day 7 using the WST-1 reagent (Boehringer Mannheim) following the protocol provided by the supplier.
In the WST-1 staining experiments, cell lines were cultured in RPMI medium in 96-well plates at a density of 5×10^4 cells/well. CBMCs were plated at a concentration of 0.5×10^6/well. Compounds (10^−4-10^−7 M) were added at day zero. Cell viability was assessed on day 7 using the WST-1 reagent (Boehringer Mannheim) following the protocol provided by the supplier.

Series [5] has as its system HIV-1macBAL. In words: Anti-HIV-1 assay, dual tropic strain (p24). The conditions noted are these: determined by p24. As for the experimental part:
as §1, §2

For series [6], the system named is Zidovudine^R/Lamivudine^R (3) clinical HIV-1 isolates (third group of Table 7). Put plainly: microbe, parasite or virus in culture. As for the experimental part:
as §1, with “The anti-HIV-1 activity of the compound A (−) were assessed by employing HIV-1IIIB in a variety of cell types as previously described (Gu et al., 1992, 1994, 1999; Rando et al., 1995; Salomon et al., 1994).” left out
Clinical strains were isolated from PBMCs of HIV-1 infected individuals through co-culture with PBMCs from normal dornors.

Series [7] is described as follows: Cellular toxicity by [3H]-thymidine uptake. The conditions noted are these: human. Here is the method: as §3
(§4) Cellular toxicity was assessed by [^3H]thymidine uptake (de Muys et al. 1999) and WST-1 staining. In the [^3H]thymidine uptake experiments, Molt-4, HT1080, DU-145, HepG2 and HSF, were plated at a concentration of 1-2×10^3 cells per well (96 well plates). PHA-stimulated PBMCs were cultured at a concentration of 4×10^4 cells per well. Following a 24 hr pre-incubation period, test compounds (10^−4 M to 10^−10 M) were added and the cells were incubated for an additional 72 hrs. [^3H]thymidine was added during the final 18 hr incubation period. The cells were then washed once with PBS, treated with trypsin if the cells were adherent, and resuspended in water (hypotonic lysing of cells). The cellular extract was applied directly to a Tomtec Harvester 96. The 50% cytotoxic concentration (CC50) was determined by comparing the radioactive counts per minute obtained from drug-tested samples to those obtained from the control (untreated) cells.

The test system of series [8] is DU-145. In words: Cellular toxicity by [3H]-thymidine uptake. The conditions noted are these: 72 hrs. As for the experimental part: as §3, §4
The mark [9] stands for this setting: Human immunodeficiency virus 1, PBMC, PBMCs.
Where [10] appears, read: Human immunodeficiency virus 1, m/m cells.
Setting [11] is: Human immunodeficiency virus 1, read-out: EC50 (μM), mean EC50 values.
[12] abbreviates: Human immunodeficiency virus 1, read-out: EC50 (μM), ranges of EC50s of the isolates in the same group.
[13] abbreviates: Table 4, read-out: CC50 (μM) [^3H-]TTP incorporation in: HSF.
Setting [14] is: Table 4, read-out: CC50 (μM) [^3H-]TTP incorporation in: Molt-4.
Setting [15] is: Table 14, read-out: CC50 (μM) [^3H]TTP incorporation in: U145.

Regarding `Nc1nc(NC2CC2)c2ncn([C@H]3CO[C@@H](CO)O3)c2n1` [Compound A (-), (−)-(2R,4R)-2-hydroxymethyl-4-(2′-amino-6′-cyclopropylamino-purine-9′-yl)-1,3-dioxolane], the EC50 came to 1.03 µM in series [1]; 0.59 µM in series [2]; 0.028 µM in series [3]; 4.14 µM in series [5] (setting [9]); 0.022 µM in series [5] (setting [10]); 0.19 µM in series [6] (setting [11]). The EC50 in series [6] (setting [12]) was 0.066 to 0.33 µM. Moreover, the CC50 at 7 days in series [4] (Table 14, day 7, read-out: CC50 (μM) WST-1 CBMC) was over 100 µM. For the same compound, the CC50 at 72 h was over 500 µM in series [7] (DU-145 cells, Table 14, read-out: CC50 (μM) [^3H]TTP incorporation in: U145); 414 µM in series [7] (HSF cells, Table 14, read-out: CC50 (μM) [^3H]TTP incorporation in: HSF); over 500 µM in series [7] (HT1080 cells, Table 14, read-out: CC50 (μM) [^3H]TTP incorporation in: HT800); over 500 µM in series [7] (HepG2 cells, Table 14, read-out: CC50 (μM) [^3H]TTP incorporation in: HepG2); over 500 µM in series [7] (Molt-4 cells, Table 14, read-out: CC50 (μM) [^3H]TTP incorporation in: Molt4).

As to `Cc1cn([C@H]2C[C@H](N=[N+]=[N-])[C@@H](CO)O2)c(=O)[nH]c1=O` [Zidovudine, zidovudine], the EC50 is 0.0017 µM in series [2]; under 0.0011 µM in series [3]; 0.043 µM in series [5] (setting [9]); under 0.0011 µM in series [5] (setting [10]); 0.83 µM in series [6] (setting [11]); 0.25 to 1.74 µM in series [6] (setting [12]). Further, the CC50 at 7 days in series [4] (Table 4, day 7, read-out: CC50 (μM) WST-1 CBMC) is 74 µM. Besides, the CC50 at 72 h in series [7] (setting [13]) was over 10 µM; in series [7] (Table 4, read-out: CC50 (μM) [^3H-]TTP incorporation in: HT1080), 5 µM; in series [7] (Table 4, read-out: CC50 (μM) [^3H-]TTP incorporation in: HepG2), 3 µM; in series [7] (setting [14]), 3 µM; in series [7] (Table 4, read-out: CC50 (μM) [^3H-]TTP incorporation in: U-145), over 10 µM. In series [8] (setting [15]), the CC50 is over 10 µM.

Consider `Nc1ccn([C@@H]2CS[C@H](CO)O2)c(=O)n1` [Lamivudine, lamivudine], for which the half-maximal effective concentration (EC50) in series [1] is 4.31 µM. In addition, the CC50 at 72 h is 400 µM in series [7] (setting [13]); over 100 µM in series [7] (setting [14]); over 500 µM in series [7] (Table 14, read-out: CC50 (μM) [^3H]TTP incorporation in: HT800); over 100 µM in series [7] (Table 14, read-out: CC50 (μM) [^3H]TTP incorporation in: HepG2); over 500 µM in series [7] (setting [15]). The “CC50 (μM) [^3H-]TTP incorporation in: U-145” value in series [8] (Table 4) is given as >500/100.
